Experimental data as given in patent publication US10329304B2, “Compounds and methods for inhibition of hedgehog signaling and phosphodiesterase” (Vanderbilt University, priority 2014, dated 2019).
Entries after “also recorded” stand apart in the source; their conditions may differ. Like-named read-outs stand apart in the source and are kept apart here.

Tests used:
[1] = tested on: Hedgehog signaling (TM3-Gli-Luc); experiment: TM3-Gli-Luc luciferase reporter assay stimulated with 20 nM SAG; type: cell-based
In short: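 TM3-Gli-Luc cells on 0.1% gelatin in DMEM/F12 with 2.5% FBS, treated 48 h with compound plus 20 nM SAG. Steady-Glo luminescence normalized to CellTiter-Glo viability, DMSO-only (no SAG) background subtracted, percent of SAG control. EC50 averaged from ≥2 independent days ±SEM.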

Gli1 mRNA = experiment: Hh % Inh.: SAG-induced Gli1 expression in C3H10T½ cells (qPCR); type: cell-based; conditions: Mus musculus, C3H 10T1/2, SAG-induced (100 nM), 24 hours; for inhibition at 1 µM: 1 pM [sic], read-out: C3H10T1/2 qPCR, Gh1 mRNA % Inh., 1 pM; for inhibition at 10 µM: 10 pM [sic], read-out: C3H10T1/2 qPCR, Gh1 mRNA % Inh., 10 pM; for EC50: read-out: C3H10T1/2 qPCR, Gh1 mRNA EC50
Experimental: Compounds are dosed from 10 mM DMSO stock solutions, and mRNA is isolated after 24 hours of compound treatment. mRNA is reverse transcribed to produce cDNA which is quantified by quantitative polymerase chain reaction (qPCR) in triplicate and levels are normalized to GAPDH levels. Data is presented as percent inhibition compared to positive control (SAG).

PDE4D3 = target: T1, PDE4D3 (Homo sapiens, UniProt Q08499); experiment: In vitro PDE assay; type: biochemical; conditions: for IC50: Table 9A; for Mode of inhibition (Lineweaver-Burk, Eadie Hofstee): purified PDE4D3
T1 construct: purchased BPS Biosciences (San Diego, Calif.); kinetic studies by Millipore (St. Louis, Mo.)
T1 sequence (Q08499 1-673 isoform Q08499-2): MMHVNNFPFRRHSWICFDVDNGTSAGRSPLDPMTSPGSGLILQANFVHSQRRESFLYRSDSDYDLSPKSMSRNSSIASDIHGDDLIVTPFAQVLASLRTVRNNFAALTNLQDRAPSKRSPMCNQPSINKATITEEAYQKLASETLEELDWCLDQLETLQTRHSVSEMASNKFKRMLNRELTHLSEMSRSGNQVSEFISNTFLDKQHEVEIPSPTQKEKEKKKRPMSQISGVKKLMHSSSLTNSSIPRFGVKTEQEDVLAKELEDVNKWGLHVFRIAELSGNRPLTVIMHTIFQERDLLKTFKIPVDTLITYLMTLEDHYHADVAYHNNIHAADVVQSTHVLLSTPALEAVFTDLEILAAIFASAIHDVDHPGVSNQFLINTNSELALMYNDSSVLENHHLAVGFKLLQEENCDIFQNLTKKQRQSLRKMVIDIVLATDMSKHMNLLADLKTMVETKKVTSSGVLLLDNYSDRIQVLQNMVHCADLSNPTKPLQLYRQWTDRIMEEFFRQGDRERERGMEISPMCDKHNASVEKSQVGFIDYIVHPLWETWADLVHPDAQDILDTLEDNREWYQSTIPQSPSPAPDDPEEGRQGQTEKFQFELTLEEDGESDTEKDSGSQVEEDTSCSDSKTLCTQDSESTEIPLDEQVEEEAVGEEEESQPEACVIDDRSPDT
In short: (§1)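 Recombinant human PDE incubated 60 min at room temperature in duplicate with 100 nM FAM-cAMP in 10 mM Tris-HCl pH 7.4, 10 mM MgCl2, 0.05% Tween 20, 1% DMSO. FAM-AMP product captured by bead binding agent for 60 min, then fluorescence read at 485/528 nm.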

PDE4D2 = target: T2, PDE4D2 (Homo sapiens, UniProt Q08499); experiment: In vitro PDE assay; type: biochemical; conditions: for IC50: Table 9A
T2 construct: purchased BPS Biosciences (San Diego, Calif.)
T2 sequence (Q08499 303-809): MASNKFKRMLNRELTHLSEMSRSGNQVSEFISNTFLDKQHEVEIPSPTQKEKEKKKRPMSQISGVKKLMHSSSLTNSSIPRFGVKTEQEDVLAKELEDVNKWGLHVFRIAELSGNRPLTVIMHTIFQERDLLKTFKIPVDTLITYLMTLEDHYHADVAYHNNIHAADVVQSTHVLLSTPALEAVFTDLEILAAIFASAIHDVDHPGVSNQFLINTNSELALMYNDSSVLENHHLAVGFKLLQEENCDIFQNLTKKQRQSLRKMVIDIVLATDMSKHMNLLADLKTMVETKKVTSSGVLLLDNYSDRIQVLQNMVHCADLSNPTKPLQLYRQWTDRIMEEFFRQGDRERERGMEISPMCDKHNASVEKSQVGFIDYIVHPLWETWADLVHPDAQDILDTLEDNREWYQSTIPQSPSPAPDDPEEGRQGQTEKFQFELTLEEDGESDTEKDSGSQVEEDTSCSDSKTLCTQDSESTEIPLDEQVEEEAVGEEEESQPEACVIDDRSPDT
In short: as §1

DaoY = experiment: Cell viability assay (CellTiter-Blue, 72 hr); type: cell-based, Human
Experimental: (§2) Cancer cell lines were seeded in 96 well tissue culture plate at a low density (10,000 cells per well) and treated with varying concentrations of Eggmanone. After 72 hr incubation, CellTiter-Blue Cell Viability Assay (Promega, Madison, Wis.) was then performed according to manufacturer's protocol. Absorbance was then measured in a Modulus Microplate reader (Promega, Madison, Wis.) at 590 nm and compared to cells treated with DMSO.
as §2, with “density” for “density (10,000 cells per well)”, “compounds identified in Table 7.” for “Eggmanone.”

HCT116 = experiment: Cell viability assay (CellTiter-Blue, 72 hr); type: cell-based, Human
Experimental: as §2
as §2, with “density” for “density (10,000 cells per well)”, “compounds identified in Table 7.” for “Eggmanone.”

B16F11 = experiment: Cell viability assay (CellTiter-Blue, 72 hr); type: cell-based, Mouse
Experimental: as §2
as §2, with “density” for “density (10,000 cells per well)”, “compounds identified in Table 7.” for “Eggmanone.”

PC3 = experiment: Cell viability assay (CellTiter-Blue, 72 hr); type: cell-based; conditions: for EC50: PC-3, human cancer cells, read-out: CELL KILLING EC50 (μM) Prostate PCx3
Experimental: as §2

[2] = 20 nM SAG, mean ± standard error of the mean, read-out: TM3-Gli-Luc EC50
[3] = TM3-Gli-Luc reporter line stimulated with 20 nM SAG, mean ± SEM, Table 14, read-out: TM3-Gli-Luc EC50
[4] = Table 9A, read-out: TM3 G8 Luciferase EC 50
[5] = Daoy, human cancer cells, read-out: CELL KILLING EC50 (μM) Medulloblastoma DaoY
[6] = HCT-116, human cancer cells, read-out: CELL KILLING EC50 (μM) Colon HTC116
[7] = Mus musculus, B16-F10, Table 10, read-out: CELL KILLING EC50 (μM) Melanoma B16F10

SMILES | IC50 (PDE4D3) | IC50 (PDE4D2) | EC50 [1, 4] | inhibition at 1 µM (Gli1 mRNA) | inhibition at 10 µM (Gli1 mRNA) | EC50 (Gli1 mRNA) | EC50 (DaoY; [5]) | EC50 (HCT116; [6]) | EC50 (B16F11; [7]) | EC50 (PC3) | also measured
CCCn1c(SCC(=O)c2cccs2)nc2sc3c(c2c1=O)CCCC3 [Formula 9e] |  |  |  |  |  |  |  |  |  |  | EC50 [1, 2]: 1.3 ± 0.18 µM; EC50 [1, 3]: 1.3 ± 0.18 µM
C=C(C)Cn1c(SCC(=O)c2ccccc2)nc2sc3c(c2c1=O)CCCC3 [JEH-3-045-1] | 18 µM | 14 µM | 8.49 µM | 58.1% | 95.4% | 809 nM |  |  |  |  | 
C=C(C)Cn1c(SCC(=O)c2ccccc2)nc2sc3c(c2c1=O)CCCC3 [Formula 9g] |  |  |  |  |  |  |  |  |  |  | Hh inhibitory activity / potency in words ([1]; 20 nM SAG): modest potency; EC50 [1, 2]: 5.7 ± 2.1 µM; EC50 [1, 3]: 5.7 ± 2.1 µM
C=C(C)Cn1c(SCC(=O)c2cccs2)nc2sc3c(c2c1=O)CCCC3 [Eggmanone, 3-(2-methylallyl)-2-((2-oxo-2-(thiophen-2-yl)ethyl)thio)-5,6,7,8-tetrahydrobenzo[4,5]thieno[2,3-d]pyrimidine-4(3H)-one] |  |  |  |  |  |  |  |  |  |  | Viability of Daoy medulloblastoma cells (DaoY): potently and preferentially reduced the viability; also recorded: significantly inhibited; Viability of Daoy medulloblastoma cells (DaoY; listed as eggmanone): potently and preferentially reduced the viability; Effect on HCT116 colon cancer cell line (HCT116): significantly inhibited; Potency against PDE4D3 versus any tested PDE not of the PDE4 family (PDE4D3): at least 60 fold; Mode of inhibition (Lineweaver-Burk, Eadie Hofstee) (PDE4D3): exhibited a competitive mode of inhibition; Inhibition of super-short isoform PDE4D2 (PDE4D2): not inhibited; EC50 (B16F11; 72 h, read-out: EC50 (50% reduction of viable cell count at 72 hours), B16F11, Mouse Melanoma): 2.05 µM; Effect on PC3 prostate cancer cell line (PC3): is affected
C=C(C)Cn1c(SCC(=O)c2cccs2)nc2sc3c(c2c1=O)CCCC3 [EGM, Eggmanone] | 1.1 µM | 1.3 µM | 1.35 µM | 53.3% | 92.7% | 1410 nM | 31.5 µM | 11.4 µM | 2.22 µM | 77.2 µM | Mode of inhibition (Lineweaver-Burk, Eadie Hofstee) (PDE4D3): competitive mode of inhibition; also recorded: acts in a competitive manner

Now from value to molecule, other results behind:

IC50 (PDE4D3) | IC50 (PDE4D2) | EC50 [1, 4] | SMILES | inhibition at 1 µM (Gli1 mRNA) | inhibition at 10 µM (Gli1 mRNA) | EC50 (Gli1 mRNA) | EC50 (DaoY; [5]) | EC50 (HCT116; [6]) | EC50 (B16F11; [7]) | EC50 (PC3) | also measured
24 µM | 16 µM | 19 µM | C=C(C)Cn1c(SCC(=O)c2ccncc2)nc2sc3c(c2c1=O)CCCC3 [JEH-3-048-1] |  | 28.7% |  | 0.0574 µM | 87.9 µM | 14.2 µM | 81.2 µM | EC50 (DaoY; 72 h, read-out: EC50 (50% reduction of viable cell count at 72 hours), DaoY, Human Cerebellar Medulloblastoma): 0.057 µM
> 100 µM |  | 0.476 µM | O=C(CSc1nc2sc3c(c2c(=O)n1C1CC1)CCCC3)c1cccs1 [JEH-3-039-2] | 49.3% | 89.1% | 593 nM |  |  |  |  | 
15 µM | 6.4 µM | 32.5 µM | C=C(C)Cn1c(SCC(=O)c2nccs2)nc2sc3c(c2c1=O)CCCC3 [JEH-3-069-1] |  | 42.8% |  | 26.9 µM | 22.9 µM | 16.1 µM | 69.7 µM | 
23 µM | 4.9 µM | 39.8 µM | C=C(C)Cn1c(SCC(=O)c2ccccn2)nc2sc3c(c2c1=O)CCCC3 [JEH-3-063] |  | 35.4% |  | 15.3 µM | 3.82 µM | 2.29 µM | 100 µM | EC50 (HCT116; HCT-116, 72 h, read-out: EC50 (50% reduction of viable cell count at 72 hours), HCT116, Human Colorectal Carcinoma): 3.82 µM
> 100 µM | > 100 µM | 3.02 µM | C=CCn1c(SCC(=O)c2cccs2)nc2sc3c(c2c1=O)CCCC3 [JEH-3-039-3] | 64.9% | 66.5% |  | 34 µM | 54.5 µM | 3.69 µM | 50.1 µM | 
